Values joined by “and” are separate entries in the source; they are usually repeats but may differ in a detail not shown here. Equal entries are not always repeated. Inconclusive results are not listed.

The values below come from PubChem BioAssay AID206 (DTP/NCI, 2004).

The assay has as its system nude mice, HT29 intrarenal xenograft, tumor weight T/C. Nature of the assay: NCI In Vivo Anticancer Drug Screen. Data for tumor model HT29;CX-1 Human Adenocarcinoma (MER+) (intrarenal inoculation) in NU/NU Swiss (nude) mice. The conditions noted are these: endpoint: mean tumor weight change, higher = larger tumour. The gist of the method:
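T/C = treated-group value ÷ vehicle-group value, using tumor size or survival.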

Where [1] appears, read: dose: 100.0 mg/kg/injection, schedule: Q04DX004 (sc), vehicle: saline with Tween-80.
Where [2] appears, read: dose: 200.0 mg/kg/injection, schedule: Q04DX004 (sc), vehicle: saline with Tween-80.
[3] abbreviates: dose: 18.75 mg/kg/injection, schedule: Q04DX004 (sc), vehicle: saline.
Setting [4] is: dose: 150.0 mg/kg/injection, schedule: Q04DX004 (sc), vehicle: saline with Tween-80.

As to `CCCCCCCCCCCCCCCCCC(=O)OCC(=O)OCC(=O)[C@]1(O)Cc2c(O)c3c(c(O)c2[C@@H](OC2CC(N)C(O)C(C)O2)C1)C(=O)c1c(OC)cccc1C3=O` (stereo partly drawn), the T/C (dose: 3.0 mg/kg/injection, schedule: Q01DX010 (sc), vehicle: water) is 56 % of control; the T/C (dose: 6.0 mg/kg/injection, schedule: Q01DX010 (sc), vehicle: water) was 47 % of control; the T/C (dose: 7.5 mg/kg/injection, schedule: Q04DX004 (sc), vehicle: water) is 86 % of control; the T/C (dose: 12.0 mg/kg/injection, schedule: Q01DX010 (sc), vehicle: water) was 59 % of control; the T/C (dose: 15.0 mg/kg/injection, schedule: Q04DX004 (sc), vehicle: water) is 96 % of control; the T/C (dose: 30.0 mg/kg/injection, schedule: Q04DX004 (sc), vehicle: water) is 38 % of control.
Take `COC(=O)C(N)Cc1ccc(O)c(O)c1` (stereo not drawn): the T/C was 74 % of control (dose: 225.0 mg/kg/injection, schedule: Q04DX004 (sc), vehicle: saline); 104 % of control (dose: 450.0 mg/kg/injection, schedule: Q04DX004 (sc), vehicle: saline); 77 % of control (dose: 900.0 mg/kg/injection, schedule: Q04DX004 (sc), vehicle: saline); 55 % of control (dose: 1800.0 mg/kg/injection, schedule: Q04DX004 (sc), vehicle: saline).
Consider `OC1(CSc2ccccc2)CCCCC1`, for which the T/C under setting [1] was 113 % of control.
As to `O=C(Nc1ccc(N=C=S)cc1Cl)c1cc(Cl)cc(Cl)c1O`, the T/C runs as follows: (dose: 25.0 mg/kg/injection, schedule: Q04DX004 (sc), vehicle: Klucel (hydroxypropylcellulose) (HPC)) 123 % of control; (dose: 50.0 mg/kg/injection, schedule: Q04DX004 (sc), vehicle: Klucel (hydroxypropylcellulose) (HPC)) 102 % of control; (dose: 200.0 mg/kg/injection, schedule: Q04DX004 (sc), vehicle: Klucel (hydroxypropylcellulose) (HPC)) 56 % of control.
`Cc1cc(N/N=C/c2ccccn2)nc2ccccc12`: the T/C runs as follows: (dose: 37.5 mg/kg/injection, schedule: Q04DX004 (sc), vehicle: Klucel (hydroxypropylcellulose) (HPC)) 101 % of control; (dose: 75.0 mg/kg/injection, schedule: Q04DX004 (sc), vehicle: Klucel (hydroxypropylcellulose) (HPC)) 107 % of control; (dose: 150.0 mg/kg/injection, schedule: Q04DX004 (sc), vehicle: Klucel (hydroxypropylcellulose) (HPC)) 123 % of control; (dose: 300.0 mg/kg/injection, schedule: Q04DX004 (sc), vehicle: Klucel (hydroxypropylcellulose) (HPC)) 90 % of control.
As to `CC(=O)O[C@H]1C(=O)[C@@]2(C)[C@H]([C@H](OC(=O)c3ccccc3)[C@]3(O)C[C@H](OC(=O)[C@H](O)[C@@H](NC(=O)c4ccccc4)c4ccccc4)C(C)=C1C3(C)C)[C@]1(OC(C)=O)CO[C@@H]1C[C@@H]2O`, the T/C (dose: 400.0 mg/kg/injection, schedule: Q01DX010 (sc), vehicle: Klucel (hydroxypropylcellulose) (HPC)) was 3 % of control and 12 % of control and 16 % of control.
Take `Cc1ccc2c(c1)N=C(Nc1ccccc1)N=S2(C)=O` (stereo not drawn): the T/C is, setting by setting: (dose: 50.0 mg/kg/injection, schedule: Q04DX004 (sc), vehicle: saline with Tween-80) 48 % of control; under setting [1], 67 % of control; under setting [2], 66 % of control.
As for `CCCC(=O)OCc1cc(=O)n(C)c2c3c4c(cc12)c(C)cc(=O)n4CO3`, the T/C (dose: 200.0 mg/kg/injection, schedule: Q01DX010 (sc), vehicle: Klucel (hydroxypropylcellulose) (HPC)) was 71 % of control.
With `Nc1nc(-c2cccc3ccccc23)cc2ccccc12`, the T/C by setting is: under setting [2], 67 % of control; (dose: 400.0 mg/kg/injection, schedule: Q04DX004 (sc), vehicle: saline with Tween-80) 105 % of control.
With `O=C(O)Cc1cccc2c(=O)cc(-c3ccccc3)oc12`, the T/C was 42 % of control (dose: 112.0 mg/kg/injection, schedule: Q04DX003 (ip), vehicle: sodium bicarbonate); 90 % of control (dose: 150.0 mg/kg/injection, schedule: Q04DX003 (ip), vehicle: sodium bicarbonate); 105 % of control (dose: 200.0 mg/kg/injection, schedule: Q01DX001 (ip), vehicle: sodium bicarbonate); 46 % of control (dose: 200.0 mg/kg/injection, schedule: Q04DX003 (ip), vehicle: sodium bicarbonate); 52 % of control (dose: 267.0 mg/kg/injection, schedule: Q01DX001 (ip), vehicle: sodium bicarbonate).
Take `N=C(N)CCCCCCCCC(=N)N`: the T/C under setting [3] was 101 % of control.
In the case of `C[C@@](O)(/C=C/[C@H]1CC=CC(=O)O1)[C@@H](C[C@@H](O)\C=C/C=C\C=C\CO)OP(=O)(O)O`, the T/C was 76 % of control (dose: 9.38 mg/kg/injection, schedule: Q04DX004 (sc), vehicle: saline); 102 % of control under setting [3]; 72 % of control (dose: 37.5 mg/kg/injection, schedule: Q04DX004 (sc), vehicle: saline).
For `C[n+]1c2cc(N)ccc2cc2ccc(N)cc21`, the T/C is 72 % of control (dose: 1.56 mg/kg/injection, schedule: Q01DX010 (sc), vehicle: saline); 49 % of control (dose: 3.13 mg/kg/injection, schedule: Q01DX010 (sc), vehicle: saline); 88 % of control (dose: 6.25 mg/kg/injection, schedule: Q01DX010 (sc), vehicle: saline).
Take `O=[n+]1c2ccccc2n([O-])c2ccccc21.[Cl][Ni][Cl]`: the T/C is 92 % of control (dose: 75.0 mg/kg/injection, schedule: Q04DX004 (sc), vehicle: saline with Tween-80) and 89 % of control under setting [4].
On to `O=c1[nH]c(=O)n(C2CC(O)C(CO)O2)cc1Br` (stereo not drawn), for which the T/C (dose: 600.0 mg/kg/injection, schedule: Q04DX004 (sc), vehicle: Klucel (hydroxypropylcellulose) (HPC)) is 157 % of control; the T/C (dose: 1200.0 mg/kg/injection, schedule: Q04DX004 (sc), vehicle: Klucel (hydroxypropylcellulose) (HPC)) was 91 % of control; the T/C (dose: 2400.0 mg/kg/injection, schedule: Q04DX004 (sc), vehicle: Klucel (hydroxypropylcellulose) (HPC)) is 59 % of control.
With `O=C1c2c(O)ccc(O)c2C(=O)c2c(NCCNCCO)ccc(NCCNCCO)c21`, the T/C was 89 % of control (dose: 0.13 mg/kg/injection, schedule: Q01DX010 (sc), vehicle: acid diluted with saline); 75 % of control (dose: 0.25 mg/kg/injection, schedule: Q01DX010 (sc), vehicle: acid diluted with saline); 73 % of control (dose: 2.5 mg/kg/injection, schedule: Q04DX004 (sc), vehicle: water); 104 % of control (dose: 5.0 mg/kg/injection, schedule: Q04DX004 (sc), vehicle: water); 76 % of control (dose: 10.0 mg/kg/injection, schedule: Q04DX004 (sc), vehicle: water).
`C[CH2][Ge]([CH2]C)[CH2]C.C[CH2][Ge]([CH2]C)[CH2]C.C[CH2][Ge]([CH2]C)[O][Ge]([CH2]C)[CH2]C`: under setting [4], the T/C was 112 % of control.
Regarding `CN(C)CCCNc1c2ccccc2nc2cccc([N+](=O)[O-])c12`, the T/C (dose: 0.37 mg/kg/injection, schedule: Q04DX004 (sc), vehicle: saline) was 226 % of control.
For the compound `Nc1nc(=O)n(C2OC(CO)C(O)C2O)cc1F` (stereo not drawn), the T/C was 122 % of control (dose: 150.0 mg/kg/injection, schedule: Q04DX004 (ip), vehicle: saline); 56 % of control (dose: 300.0 mg/kg/injection, schedule: Q04DX004 (ip), vehicle: saline); 83 % of control (dose: 600.0 mg/kg/injection, schedule: Q04DX004 (ip), vehicle: saline); 26 % of control (dose: 600.0 mg/kg/injection, schedule: Q04DX004 (sc), vehicle: saline); 42 % of control (dose: 1200.0 mg/kg/injection, schedule: Q04DX004 (ip), vehicle: saline); 11 % of control (dose: 1200.0 mg/kg/injection, schedule: Q04DX004 (sc), vehicle: saline).
Regarding `N#C[C@H](OC1OC(COC2OC(CO)C(O)C(O)C2O)C(O)C(O)C1O)c1ccccc1` (stereo partly drawn), the T/C is 101 % of control (dose: 450.0 mg/kg/injection, schedule: Q04DX004 (sc), vehicle: suspension in saline); 67 % of control (dose: 900.0 mg/kg/injection, schedule: Q04DX004 (sc), vehicle: suspension in saline); 56 % of control (dose: 1800.0 mg/kg/injection, schedule: Q04DX004 (sc), vehicle: suspension in saline); 69 % of control (dose: 3600.0 mg/kg/injection, schedule: Q04DX004 (sc), vehicle: suspension in saline).
In the case of `O=C1C=C2C(=CCOC2O)O1` (stereo not drawn), the T/C is 53 % of control (dose: 2.0 mg/kg/injection, schedule: Q04DX004 (sc), vehicle: Klucel (hydroxypropylcellulose) (HPC)) and 87 % of control (dose: 4.0 mg/kg/injection, schedule: Q04DX004 (sc), vehicle: Klucel (hydroxypropylcellulose) (HPC)).
Regarding `CCCCNC(C)C1(O)Cc2c(O)c3c(c(O)c2C(OC2CC(N)C(O)C(C)O2)C1)C(=O)c1c(OC)cccc1C3=O` (stereo not drawn), for the setting “dose: 100.0 mg/kg/injection, schedule: Q01DX010 (sc), vehicle: water”, the T/C was 44 % of control.
Take `CCCCCCCCCCCCCCCC(=O)Nc1ccn(C2OC(CO)C(O)C2O)c(=O)n1` (stereo not drawn): the T/C (dose: 56.25 mg/kg/injection, schedule: Q04DX004 (sc), vehicle: water) is 114 % of control.
